Source: patent US8835484B2, “Naphthocyanines for use as contrast agents” (Alamedics GmbH & Co. KG, priority 2010, dated 2014)

Tests used:
[1] = Solid cyanine dye stability comparison; assay type: physicochemical; details: storage
From the text: Decomposition of the solid dye results in a red coloration of the solid and the solution. Carboxylic acid esters, especially methyl ester, are particularly sensitive in addition to the bromides.

[2] = Fluorescence quantum yield; assay type: physicochemical; details: CHCl3; Reference: S-13 with Φ=1.00
From the text: IR spectra: Perkin Elmer Spectrum BX II, using a diamond anvil cell; UV/Vis spectra: Varian Cary 5000 and Bruins Omega 20; fluorescence spectra: Varian Eclispe; NMR spectroscopy: Varian Vnmrs 600 (600 MHz, 400 MHz, 200 MHz); mass spectrometry: Thermo Finnigan LQT FT.

lens capsule = assay: Dye tests on porcine eyes (lens capsule staining); set-up: key: +++: visually assessed very strong coloration; ++: good coloration; +: satisfactory coloration; −: weak or absent coloration; details: incubated, rinsed after one minute
Protocol: For the dye test, in each case 5 mg dye was dissolved in 500 μL ethanol and diluted to 2 mL with BSS Plus solution as the stock solution, and then correspondingly further diluted. As an alternative, one can prepare stock solutions of the dye by dissolving, for example, 5 mg dye in 1 mL distilled water, adding 7 mL BSS solution and then combining with 1 mL NaCl solution having an osmolality of 620 (approximately 2%) in order to restore the original osmolality of the BSS solution (308). This stock solution can be correspondingly further diluted with BSS solution as required. Enucleated porcine eyes were used having a post mortem time period of a few hours. To dye the lens capsule, the cornea was first removed. Thereafter, the iris was resected and the capsular support was severed. The lens with intact lens capsule was removed and placed in a bowl filled with BSS. The lenses were thereafter incubated with the dyes according to the invention at various concentrations and then rinsed after one minute. The dye pattern was photographically documented, whereby the coloration was assessed without additional illumination, and fluorescence was assessed with illumination (Xenon lamp, halogen lamp with typical endoillumination source and fiber optics). The lens capsule is a very good model for dyeing due to the fact that it is a basal membrane, as is the ILM of the retina. Both structures are important target structures in eye surgery.

Row | Compound | Stability [1] | Fluorescence quantum yield [2] | coloration of lens capsule (lens capsule; dye concentration 0.5%) | coloration of lens capsule (lens capsule; dye concentration 1.0) | coloration of lens capsule (lens capsule; dye concentration 0.0025%) | coloration of lens capsule (lens capsule; dye concentration 0.025%) | coloration of lens capsule (lens capsule; dye concentration 0.25%)
1 | 3,3′-Di-(5-bromodecyl)-1,1,1′,1′-tetramethyl-1H-dibenzo[e]indocarbocyanine bromide [Dye 3x] | No decomposition after 4 months | 0.10 |  |  |  |  | 
2 | 3,3′-Di-(5-bromopentyl)-1,1,1′,1′-tetramethyl-1H-dibenzo[e]indocarbocyanine bromide [Dye 3y] | No decomposition after 4 months | 0.15 |  |  |  |  | 
3 | 3,3′-Di-(5-brompentyl)-1,1,1′,1′-tetramethyl-1H-disulfobenzo[e]indocarbocyanine bromide [Dye 6h] | Decomposition after a few days | 0.19 | decomposed | decomposed |  |  | 
4 | CC1(C)C(/C=C/C=C2\N(CCC(=O)O)c3ccc4ccccc4c3C2(C)C)=[N+](CCC(=O)O)c2ccc3ccccc3c21.[Br-] [Dye 3a, 3,3′-Di-(2-carboxyethyl)-1,1,1′,1′-tetramethyl-1H-dibenzo[e]indocarbocyanine bromide] |  | 0.35 | ++ |  | − | + | ++
5 | CC1(C)C(=CC=CC2=[N+](CCCCC(=O)O)c3ccc4ccccc4c3C2(C)C)N(CCCCC(=O)O)c2ccc3ccccc3c21.[Br-] [Dye 3b, 3,3′-Di-(4-carboxybutyl)-1,1,1′,1′-tetramethyl-1H-dibenzo[e]indocarbocyanine bromide] |  | 0.49 |  |  |  |  | 
6 | CC1(C)C(=CC=CC2=[N+](CCCCCC(=O)O)c3ccc4ccccc4c3C2(C)C)N(CCCCCC(=O)O)c2ccc3ccccc3c21.[Br-] [Dye 3c, 3,3′-Di-(5-carboxypentyl)-1,1,1′,1′-tetramethyl-1H-dibenzo[e]indocarbocyanine bromide] |  | 0.50 | +++ |  | − | − | +++
7 | CC1(C)C(=CC=CC2=[N+](CCCCCCCC(=O)O)c3ccc4ccccc4c3C2(C)C)N(CCCCCCCC(=O)O)c2ccc3ccccc3c21.[Br-] [Dye 3d, 3,3′-Di-(7-carboxyheptyl)-1,1,1′,1′-tetramethyl-1H-dibenzo[e]indocarbocyanine bromide] |  | 0.43 | +++ |  | − | − | +
8 | CC1(C)C(=CC=CC2=[N+](CCCCCCCCCC(=O)O)c3ccc4ccccc4c3C2(C)C)N(CCCCCCCCCC(=O)O)c2ccc3ccccc3c21.[Br-] [Dye 3e, 3,3′-Di-(9-carboxynonyl)-1,1,1′,1′-tetramethyl-1H-dibenzo[e]indocarbocyanine bromide] |  | 0.59 | ++ |  | − | − | ++
9 | CC1(C)C(=CC=CC2=[N+](CCCCCCCCCCC(=O)O)c3ccc4ccccc4c3C2(C)C)N(CCCCCCCCCCC(=O)O)c2ccc3ccccc3c21.[Br-] [Dye 3f, 3,3′-Di-(10-carboxydecyl)-1,1,1′,1′-tetramethyl-1H-dibenzo[e]indocarbocyanine bromide] |  | 0.33 |  |  |  |  | 
10 | CC1(C)C(=CC=CC2=[N+](CCCCCCCCCCCC(=O)O)c3ccc4ccccc4c3C2(C)C)N(CCCCCCCCCCCC(=O)O)c2ccc3ccccc3c21.[Br-] [Dye 3g, 3,3′-Di-(11-carboxyundecyl)-1,1,1′,1′-tetramethyl-1H-dibenzo[e]indocarbocyanine bromide] |  | 0.35 | ++ |  | − | − | ++
11 | COC(=O)CCN1C(=CC=CC2=[N+](CCC(=O)OC)c3ccc4ccccc4c3C2(C)C)C(C)(C)c2c1ccc1ccccc21.[Br-] [Dye 3h, 3,3′-Di-(2-methoxycarbonylethyl)-1,1,1′,1′-tetramethyl-1H-dibenzo[e]indocarbocyanine bromide] |  | 0.24 | +++ |  | − | + | ++
12 | COC(=O)CCCCN1C(=CC=CC2=[N+](CCCCC(=O)OC)c3ccc4ccccc4c3C2(C)C)C(C)(C)c2c1ccc1ccccc21.[Br-] [Dye 3i, 3,3′-Di-(4-methoxycarbonylbutyl)-1,1,1′,1′-tetramethyl-1H-dibenzo[e]indocarbocyanine bromide] |  | 0.40 | ++ |  | − | + | +
13 | COC(=O)CCCCCCCCCN1C(=CC=CC2=[N+](CCCCCCCCCC(=O)OC)c3ccc4ccccc4c3C2(C)C)C(C)(C)c2c1ccc1ccccc21.[Br-] [Dye 3j, 3,3′-Di-(9-methoxycarbonylnonyl)-1,1,1′,1′-tetramethyl-1H-dibenzo[e]indocarbocyanine bromide] |  | 0.47 | ++ |  | − | − | +
14 | COC(=O)CCCCCCCCCCN1C(=CC=CC2=[N+](CCCCCCCCCCC(=O)OC)c3ccc4ccccc4c3C2(C)C)C(C)(C)c2c1ccc1ccccc21.[Br-] [Dye 3k, 3,3′-Di-(10-methoxycarbonyldecyl)-1,1,1′,1′-tetramethyl-1H-dibenzo[e]indocarbocyanine bromide] |  | 0.36 | ++ |  | − | − | +
15 | CCOC(=O)CCN1C(=CC=CC2=[N+](CCC(=O)OCC)c3ccc4ccccc4c3C2(C)C)C(C)(C)c2c1ccc1ccccc21.[Br-] [Dye 3l, 3,3′-Di-(2-ethoxycarbonylethyl)-1,1,1′,1′-tetramethyl-1H-dibenzo[e]indocarbocyanine bromide] |  | 0.33 | +++ |  | − | + | +++
16 | CCOC(=O)CCCN1C(=CC=CC2=[N+](CCCC(=O)OCC)c3ccc4ccccc4c3C2(C)C)C(C)(C)c2c1ccc1ccccc21.[Br-] [Dye 3m, 3,3′-Di-(3-ethoxycarbonylpropyl)-1,1,1′,1′-tetramethyl-1H-dibenzo[e]indocarbocyanine bromide] |  | 0.61 | +++ |  | − | − | ++
17 | CCOC(=O)CCCCN1C(=CC=CC2=[N+](CCCCC(=O)OCC)c3ccc4ccccc4c3C2(C)C)C(C)(C)c2c1ccc1ccccc21.[Br-] [Dye 3n, 3,3′-Di-(4-ethoxycarbonylbutyl)-1,1,1′,1′-tetramethyl-1H-dibenzo[e]indocarbocyanine bromide] |  | 0.43 | ++ |  | − | − | +
18 | CCOC(=O)CCCCCN1C(=CC=CC2=[N+](CCCCCC(=O)OCC)c3ccc4ccccc4c3C2(C)C)C(C)(C)c2c1ccc1ccccc21.[Br-] [Dye 3o, 3,3′-Di-(5-ethoxycarbonylpentyl)-1,1,1′,1′-tetramethyl-1H-dibenzo[e]indocarbocyanine bromide] |  | 0.36 | ++ |  | − | − | ++
19 | CCOC(=O)CCCCCCN1C(=CC=CC2=[N+](CCCCCCC(=O)OCC)c3ccc4ccccc4c3C2(C)C)C(C)(C)c2c1ccc1ccccc21.[Br-] [Dye 3p, 3,3′-Di-(6-ethoxycarbonylhexyl)-1,1,1′,1′-tetramethyl-1H-dibenzo[e]indocarbocyanine bromide] |  | 0.35 |  |  |  |  | 
